The text below walks through data of BindingDB's records for patent US20230382863 (Ikena Oncology, 2023).

Each structure is given as a SMILES string.

For the test, the target named is Mitogen-activated protein kinase kinase kinase 1/RAF proto-oncogene serine/threonine-protein kinase (Homo sapiens, UniProt P04049+Q02750). The experiment in a line: AlphaLISA Assay. As to the method: 5 μL 4×MEK1 stock solution was added to wells A1-P20 by multichannel pipettes. […] 5 μL 4×CRAF stock solution at different concentrations or 5 μL or 10 μL AlphaLISA buffer was added by multichannel pipettes. The plate was sealed, centrifuged at 1000 rpm for 1 minute, and incubated at room temperature for 60 minutes. 5 μL 4×glutathione acceptor beads were first added to all wells by multichannel pipettes. The ambient light was subsequently adjusted to <100 lux (light meter) before adding 5 μL 4×nickel chelate donor beads to the same wells. From this step on, the plate was covered with a black plate cover, centrifuged at 1000 rpm for 1 minute, and incubated at room temperature for 60 minutes.
Chain of Mitogen-activated protein kinase kinase kinase 1/RAF proto-oncogene serine/threonine-protein kinase (P04049 whole entry): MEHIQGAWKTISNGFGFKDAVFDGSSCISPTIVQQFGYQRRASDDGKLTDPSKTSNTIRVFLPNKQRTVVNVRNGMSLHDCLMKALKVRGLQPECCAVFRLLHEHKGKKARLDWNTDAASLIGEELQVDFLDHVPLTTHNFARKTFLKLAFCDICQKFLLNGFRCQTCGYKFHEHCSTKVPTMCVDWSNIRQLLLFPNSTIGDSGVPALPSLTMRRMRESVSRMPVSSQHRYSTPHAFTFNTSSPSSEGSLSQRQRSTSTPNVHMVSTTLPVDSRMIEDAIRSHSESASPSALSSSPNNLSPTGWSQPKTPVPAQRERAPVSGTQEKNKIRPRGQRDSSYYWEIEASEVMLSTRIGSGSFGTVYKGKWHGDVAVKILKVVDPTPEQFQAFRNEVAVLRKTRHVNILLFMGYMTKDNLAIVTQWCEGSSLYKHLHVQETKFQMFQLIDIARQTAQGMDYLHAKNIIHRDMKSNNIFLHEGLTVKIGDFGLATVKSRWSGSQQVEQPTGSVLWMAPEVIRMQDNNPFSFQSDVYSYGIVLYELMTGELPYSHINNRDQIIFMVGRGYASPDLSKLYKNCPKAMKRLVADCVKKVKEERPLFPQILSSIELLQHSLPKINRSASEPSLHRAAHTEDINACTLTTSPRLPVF
Chain of Mitogen-activated protein kinase kinase kinase 1/RAF proto-oncogene serine/threonine-protein kinase (Q13233 whole entry, further chain): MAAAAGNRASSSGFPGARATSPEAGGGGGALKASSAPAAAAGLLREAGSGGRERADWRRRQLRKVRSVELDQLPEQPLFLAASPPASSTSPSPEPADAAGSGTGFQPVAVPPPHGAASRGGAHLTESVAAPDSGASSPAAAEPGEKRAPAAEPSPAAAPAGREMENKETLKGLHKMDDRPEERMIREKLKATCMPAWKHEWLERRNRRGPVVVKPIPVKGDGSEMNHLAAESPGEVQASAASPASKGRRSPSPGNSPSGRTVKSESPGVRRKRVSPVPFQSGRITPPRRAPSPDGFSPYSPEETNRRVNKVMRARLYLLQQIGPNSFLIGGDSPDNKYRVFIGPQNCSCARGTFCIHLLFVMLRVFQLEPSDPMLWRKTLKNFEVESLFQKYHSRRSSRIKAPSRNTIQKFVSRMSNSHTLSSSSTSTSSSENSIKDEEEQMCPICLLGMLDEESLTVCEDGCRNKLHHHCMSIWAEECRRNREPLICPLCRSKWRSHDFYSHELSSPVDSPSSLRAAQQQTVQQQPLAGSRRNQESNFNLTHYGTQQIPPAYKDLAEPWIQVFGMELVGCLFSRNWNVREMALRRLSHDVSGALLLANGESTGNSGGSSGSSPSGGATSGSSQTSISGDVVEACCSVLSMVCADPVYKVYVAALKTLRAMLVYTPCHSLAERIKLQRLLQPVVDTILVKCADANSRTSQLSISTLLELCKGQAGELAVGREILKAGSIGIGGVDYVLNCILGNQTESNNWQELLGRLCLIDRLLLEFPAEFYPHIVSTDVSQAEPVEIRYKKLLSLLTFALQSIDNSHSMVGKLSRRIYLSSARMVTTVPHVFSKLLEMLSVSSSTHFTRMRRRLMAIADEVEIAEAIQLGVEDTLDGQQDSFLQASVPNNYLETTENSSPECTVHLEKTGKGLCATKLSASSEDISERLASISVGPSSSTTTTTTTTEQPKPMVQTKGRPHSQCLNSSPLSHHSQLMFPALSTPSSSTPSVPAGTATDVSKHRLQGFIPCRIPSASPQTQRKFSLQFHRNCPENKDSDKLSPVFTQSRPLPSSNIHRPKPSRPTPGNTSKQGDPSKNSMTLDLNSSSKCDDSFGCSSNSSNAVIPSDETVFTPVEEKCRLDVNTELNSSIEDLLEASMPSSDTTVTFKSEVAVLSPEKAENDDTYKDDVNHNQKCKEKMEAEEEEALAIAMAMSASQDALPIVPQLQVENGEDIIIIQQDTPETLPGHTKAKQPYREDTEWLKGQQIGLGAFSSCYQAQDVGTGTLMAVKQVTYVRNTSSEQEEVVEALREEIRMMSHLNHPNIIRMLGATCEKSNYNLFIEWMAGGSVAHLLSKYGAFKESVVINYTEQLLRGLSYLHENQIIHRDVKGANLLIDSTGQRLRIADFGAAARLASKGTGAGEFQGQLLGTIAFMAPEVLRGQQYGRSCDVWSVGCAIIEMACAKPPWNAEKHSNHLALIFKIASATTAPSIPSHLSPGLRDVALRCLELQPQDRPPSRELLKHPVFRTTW
On the technique in general: In Alpha technology, singlet oxygen from a donor bead excites a nearby acceptor bead.
For `CNS(=O)(=O)Nc1cccc(Oc2c(C(=O)NC3CC3)c(Nc3ccc(I)cc3F)n(C)c(=O)c2C)c1OC` [US20230382863, Compound I-1], the Kd – broadly, the free concentration of one partner at which half of the binding sites on the other are occupied at equilibrium, for simple one-to-one binding – worked out at 0.42 nM.

On to `CNS(=O)(=O)Nc1cccc(Oc2c(C(=O)NC3CC3)c(Nc3ccc(I)cc3F)n(C)c(=O)c2C)c1OC(F)(F)F` [US20230382863, Compound I-40], for which binding was characterised by a dissociation constant (Kd) of 0.47 nM.

`CNS(=O)(=O)Nc1cccc(Oc2c(C(=O)NC(C)C)c(Nc3ccc(I)cc3F)n(C)c(=O)c2C)c1Cl` [US20230382863, Compound I-41] came in with a Kd of 0.48 nM.

Consider `Cc1c(Oc2cccc(NS(=O)(=O)NC3CC3)c2Cl)c(C(=O)NC2CC2)c(Nc2ccc(I)cc2F)n(C)c1=O` [US20230382863, Compound I-42], for which the Kd was determined as 0.57 nM.

`CCNS(=O)(=O)Nc1cccc(Oc2c(C(=O)NC3CC3)c(Nc3ccc(I)cc3F)n(C)c(=O)c2C)c1Cl` [US20230382863, Compound I-43] gave a Kd of 0.51 nM.

Compound `CNS(=O)(=O)Nc1cccc(Oc2c(C(=O)NCC(F)(F)F)c(Nc3ccc(I)cc3F)n(C)c(=O)c2C)c1Cl` [US20230382863, Compound I-45] showed a Kd of 0.38 nM.

In the case of `CCNC(=O)c1c(Oc2cccc(NS(=O)(=O)NC)c2Cl)c(C)c(=O)n(C)c1Nc1ccc(I)cc1F` [US20230382863, Compound I-54], the Kd is 0.35 nM.

Compound `COCCNS(=O)(=O)Nc1cccc(Oc2c(C(=O)NC3CC3)c(Nc3ccc(I)cc3F)n(C)c(=O)c2C)c1Cl` [US20230382863, Compound I-55] came in with a Kd of 0.51 nM.
